Measurements: US10442848B2, “Oxyntomodulin derivatives and pharmaceutical composition for treating obesity comprising the same” (HANMI SCIENCE CO., LTD, priority 2011, dated 2019)

Tests used:
[1] = taken for 1 year; cited from earlier work
human glucagon receptor = biological target: T1, human glucagon receptor (Homo sapiens, UniProt P47871); assay: cAMP response in CHO cell line expressing human glucagon receptor; assay type: cell-based; conditions: read-out: EC50 CHO/GCGR
T1 construct: expressed in transfected cells; host or cells: CHO DG44
Experimental: The PCR product was cloned into the known animal cell expression vector x0GC/dhfr to prepare a recombinant vector x0GC/GCGR.
CHO DG44 cell line cultured in DMEM/F12 (10% FBS) medium was transfected with the recombinant vector x0GC/GCGR using LIPOFECTAMINE®, and cultured in a selection medium containing 1 mg/mL G418 and 10 nM methotraxate.
The cultured cells were washed with KRB buffer and suspended in 40 ml of KRB buffer containing 1 mM IBMX, and left at room temperature for 5 minutes. […] Then, 20 mL of cell lysis buffer was added for cell lysis, and the cell lysates were applied to a cAMP assay kit (Molecular Device, USA) to measure cAMP concentrations. EC50 values were calculated therefrom, and compared to each other.

T1 sequence (P47871 26-477): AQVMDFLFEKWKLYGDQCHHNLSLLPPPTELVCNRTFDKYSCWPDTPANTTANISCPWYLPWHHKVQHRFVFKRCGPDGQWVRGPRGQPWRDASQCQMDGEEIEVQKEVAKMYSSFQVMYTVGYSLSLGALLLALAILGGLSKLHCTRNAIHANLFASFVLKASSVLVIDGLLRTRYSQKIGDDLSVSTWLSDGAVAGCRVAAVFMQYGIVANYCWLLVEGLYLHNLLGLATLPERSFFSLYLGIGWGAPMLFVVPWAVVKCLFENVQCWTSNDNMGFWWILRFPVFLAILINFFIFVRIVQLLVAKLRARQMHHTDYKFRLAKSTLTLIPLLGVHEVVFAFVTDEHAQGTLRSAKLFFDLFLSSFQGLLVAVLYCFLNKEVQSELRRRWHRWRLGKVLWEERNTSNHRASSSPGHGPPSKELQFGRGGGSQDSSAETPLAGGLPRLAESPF

| EC50 (human glucagon receptor) [nM] | SMILES | weight loss [1] [kg] |
| --- | --- | --- |
| – | CCCCCCCCCCC[C@@H](C[C@@H]1OC(=O)[C@H]1CCCCCC)OC(=O)[C@H](CC(C)C)NC=O [orlistat] | 4 |
| 1.3 | CSCC[C@H](NC(=O)[C@H](CC(C)C)NC(=O)[C@H](Cc1c[nH]c2ccccc12)NC(=O)[C@H](CCC(N)=O)NC(=O)[C@@H](NC(=O)[C@H](Cc1ccccc1)NC(=O)[C@H](CCC(=O)O)NC(=O)[C@@H]1CCCCNC(=O)CC[C@H](NC(=O)[C@H](CC(=O)O)NC(=O)[C@H](CC(C)C)NC(=O)[C@H](Cc2ccc(O)cc2)NC(=O)[C@H](CCCCN)NC(=O)[C@H](CO)NC(=O)[C@H](Cc2ccc(O)cc2)NC(=O)[C@H](CC(=O)O)NC(=O)[C@H](CO)NC(=O)[C@@H](NC(=O)[C@H](Cc2ccccc2)NC(=O)[C@@H](NC(=O)CNC(=O)[C@H](CCC(N)=O)NC(=O)C(C)(C)NC(=O)[C@@H](N)Cc2c[nH]cn2)[C@@H](C)O)[C@@H](C)O)C(=O)N[C@@H](CCCCN)C(=O)N[C@@H](CCCNC(=N)N)C(=O)N[C@@H](C)C(=O)N1)C(C)C)C(=O)N[C@@H](CC(N)=O)C(=O)N[C@H](C(=O)N[C@@H](CS)C(=O)O)[C@@H](C)O [SEQ ID NO. 25] | – |
| 6.95 | CSCC[C@H](NC(=O)[C@H](CC(C)C)NC(=O)[C@H](Cc1c[nH]c2ccccc12)NC(=O)[C@H](CCC(N)=O)NC(=O)[C@@H](NC(=O)[C@H](Cc1ccccc1)NC(=O)[C@H](CCC(=O)O)NC(=O)[C@H](CCCCN)NC(=O)[C@H](C)NC(=O)[C@H](CCCNC(=N)N)NC(=O)[C@H](CCCCN)NC(=O)[C@H](CCC(=O)O)NC(=O)[C@H](CC(=O)O)NC(=O)[C@H](CC(C)C)NC(=O)[C@H](Cc1ccc(O)cc1)NC(=O)[C@H](CCCCN)NC(=O)[C@H](CO)NC(=O)[C@H](Cc1ccc(O)cc1)NC(=O)[C@H](CC(=O)O)NC(=O)[C@H](CO)NC(=O)[C@@H](NC(=O)[C@H](Cc1ccccc1)NC(=O)[C@@H](NC(=O)CNC(=O)[C@H](CCC(N)=O)NC(=O)C(C)(C)NC(=O)[C@@H](N)Cc1c[nH]cn1)[C@@H](C)O)[C@@H](C)O)C(C)C)C(=O)N[C@@H](CC(N)=O)C(=O)N[C@H](C(=O)N[C@@H](CS)C(=O)O)[C@@H](C)O [SEQ ID NO. 24] | – |
